The text below walks through data of publication PMC10224994, “Dual synergistic inhibition of COX and LOX by potential chemicals from Indian daily spices investigated through detailed computational studies” (Scientific Reports, 2023).

SMILES strings stand for the structures. Read-outs that look alike come from different tables or passages of the source.

Common to all, as to format: biochemical
One assay has as its target T1, COX-1 (ovine) (Ovis aries, UniProt P05979).
T1 construct: purchased Cayman Chemical
T1 sequence (P05979 25-600): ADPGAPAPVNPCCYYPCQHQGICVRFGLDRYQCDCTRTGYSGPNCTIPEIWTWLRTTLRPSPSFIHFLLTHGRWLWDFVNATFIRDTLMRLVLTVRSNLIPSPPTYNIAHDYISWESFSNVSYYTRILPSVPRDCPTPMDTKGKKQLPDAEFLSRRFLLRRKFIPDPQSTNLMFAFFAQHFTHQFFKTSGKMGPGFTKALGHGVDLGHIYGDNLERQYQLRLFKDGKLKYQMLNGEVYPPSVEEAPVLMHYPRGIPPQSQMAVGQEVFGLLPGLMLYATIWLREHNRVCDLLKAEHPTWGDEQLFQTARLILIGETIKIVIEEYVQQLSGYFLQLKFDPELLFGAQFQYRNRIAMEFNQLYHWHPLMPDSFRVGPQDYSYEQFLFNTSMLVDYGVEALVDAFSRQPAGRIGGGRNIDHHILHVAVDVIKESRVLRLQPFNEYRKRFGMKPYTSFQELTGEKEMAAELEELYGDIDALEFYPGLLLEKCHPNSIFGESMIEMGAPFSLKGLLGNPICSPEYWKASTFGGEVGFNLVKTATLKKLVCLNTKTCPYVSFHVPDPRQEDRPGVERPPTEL
Nature of the assay: In vitro COX-1 inhibition assay (EIA kit). How it is done: (§1) The inhibitory activity was measured and reported as IC50 value (µM). Data are expressed as IC50 ± SEM for triplicate studies.
(§2) Colorimetric enzyme immunoassay (EIA) was used to assess the inhibitory potential of the test compounds against COX-1, COX-2, and 5-LOX enzymes.

The target of assay [1] is T2, COX-2 (human recombinant) (Homo sapiens, UniProt P35354).
T2 construct: purchased Cayman Chemical
T2 sequence (P35354 18-604): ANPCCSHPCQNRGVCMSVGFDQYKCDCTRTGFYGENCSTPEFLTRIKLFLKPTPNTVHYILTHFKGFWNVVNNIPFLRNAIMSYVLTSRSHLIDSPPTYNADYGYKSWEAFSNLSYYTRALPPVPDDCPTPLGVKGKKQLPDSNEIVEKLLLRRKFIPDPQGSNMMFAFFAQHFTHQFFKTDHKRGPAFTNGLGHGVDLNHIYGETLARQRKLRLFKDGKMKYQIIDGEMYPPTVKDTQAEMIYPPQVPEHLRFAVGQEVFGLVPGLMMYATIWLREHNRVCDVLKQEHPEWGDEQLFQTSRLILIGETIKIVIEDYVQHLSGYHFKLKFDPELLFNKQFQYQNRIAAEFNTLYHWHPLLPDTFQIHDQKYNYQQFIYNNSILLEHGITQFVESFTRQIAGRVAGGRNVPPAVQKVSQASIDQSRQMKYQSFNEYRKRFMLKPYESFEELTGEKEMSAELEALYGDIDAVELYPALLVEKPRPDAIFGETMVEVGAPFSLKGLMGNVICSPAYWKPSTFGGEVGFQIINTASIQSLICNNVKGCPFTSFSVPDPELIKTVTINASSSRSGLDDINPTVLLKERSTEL
Nature of the assay: In vitro COX-2 inhibition assay (EIA kit). The note with it: mean of three replicates ± SEM. How it is done: as §1, §2

Another assay addresses T3, 5-LOX enzyme (Homo sapiens, UniProt P09917).
T3 construct: purchased Cayman Chemical
T3 sequence (P09917 1-674): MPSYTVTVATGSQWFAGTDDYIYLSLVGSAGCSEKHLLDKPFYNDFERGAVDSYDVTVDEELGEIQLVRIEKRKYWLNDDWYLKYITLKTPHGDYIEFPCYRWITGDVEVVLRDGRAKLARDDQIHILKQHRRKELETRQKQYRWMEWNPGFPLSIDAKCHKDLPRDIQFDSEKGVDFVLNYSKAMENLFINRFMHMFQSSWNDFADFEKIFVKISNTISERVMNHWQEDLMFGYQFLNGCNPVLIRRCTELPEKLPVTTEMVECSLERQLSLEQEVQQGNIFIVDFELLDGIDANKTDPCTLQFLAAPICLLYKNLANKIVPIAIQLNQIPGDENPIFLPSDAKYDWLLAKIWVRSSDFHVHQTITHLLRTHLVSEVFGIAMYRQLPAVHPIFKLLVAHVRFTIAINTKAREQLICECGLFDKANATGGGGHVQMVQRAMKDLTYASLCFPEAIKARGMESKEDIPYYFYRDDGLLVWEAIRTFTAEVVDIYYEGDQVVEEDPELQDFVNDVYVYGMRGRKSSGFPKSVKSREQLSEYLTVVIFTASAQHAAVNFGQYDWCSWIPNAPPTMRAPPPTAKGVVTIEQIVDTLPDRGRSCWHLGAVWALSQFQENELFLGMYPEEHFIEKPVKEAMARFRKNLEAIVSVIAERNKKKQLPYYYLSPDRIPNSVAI
Description: In vitro 5-LOX inhibition assay (Human Lipoxygenase Inhibitor screening kit). Conditions: mean of three replicates ± SEM. How it is done:
The ability of the test compounds to inhibit the 5-LOX enzyme was evaluated using the Human Lipoxygenase Inhibitor screening assay (EIA) kit (Cayman Chemical). The IC50 values were measured in µM according to the manufacturer’s instructions and reported method[63]–[65]. Data are expressed as IC50 ± SEM for triplicate studies.
as §2

Turning to `COc1cc(/C=C/C(=O)CC(=O)/C=C/c2ccc(O)c(OC)c2)ccc1O` [Curcumin, (1E,6E)-1,7-bis(4-hydroxy-3-methoxyphenyl)hepta-1,6-diene-3,5-dione], the IC50 against COX-1 (ovine) amounted to 18.6 ± 0.44 µM.

For `COc1cc(CNC(=O)CCCC/C=C/C(C)C)ccc1O` [Capsaicin, (E)-N-(4-hydroxy-3-methoxybenzyl)-8-methylnon-6-enamide], the IC50 in assay [1] is 28.3 ± 0.55 µM; on COX-1 (ovine), 24.4 ± 0.62 µM; at 5-LOX enzyme, 36.4 ± 0.39 µM.

Take `CCCCC[C@H](O)CC(=O)CCc1ccc(O)c(OC)c1` [Gingerol, (S)-5-hydroxy-1-(4-hydroxy-3-methoxyphenyl)decan-3-one]: the IC50 is 32.82 ± 0.24 µM in assay [1]; 27.1 ± 0.82 µM at COX-1 (ovine) (mean of three replicates ± SEM, read-out: IC50 data COX-1); 42.65 ± 0.17 µM against 5-LOX enzyme.

Broadly, the IC50 is the concentration that inhibits the measured activity by half.
